3 compounds from patent publication US12258344B2, “Azaaromatic amide derivatives for the treatment of cancer” (SHENZHEN FORWARD PHARMACEUTICALS CO., LTD., priority 2019, dated 2025) can be followed below.

Common to all, as to type: cell-based
The target in test [1] is BaF3 (EGFR-D770insSVD) (Homo sapiens, UniProt P00533, DUP768-770, cells depend on it). The experiment in a line: Test 2: BaF3 (EGFR-D770insSVD) cell proliferation test. To be noted: 72 hours, Cell Titer-Glo, read-out: Test 2 - IC50.
Chain of BaF3 (EGFR-D770insSVD) (P00533 with tags, fused parts or gaps DUP768-770): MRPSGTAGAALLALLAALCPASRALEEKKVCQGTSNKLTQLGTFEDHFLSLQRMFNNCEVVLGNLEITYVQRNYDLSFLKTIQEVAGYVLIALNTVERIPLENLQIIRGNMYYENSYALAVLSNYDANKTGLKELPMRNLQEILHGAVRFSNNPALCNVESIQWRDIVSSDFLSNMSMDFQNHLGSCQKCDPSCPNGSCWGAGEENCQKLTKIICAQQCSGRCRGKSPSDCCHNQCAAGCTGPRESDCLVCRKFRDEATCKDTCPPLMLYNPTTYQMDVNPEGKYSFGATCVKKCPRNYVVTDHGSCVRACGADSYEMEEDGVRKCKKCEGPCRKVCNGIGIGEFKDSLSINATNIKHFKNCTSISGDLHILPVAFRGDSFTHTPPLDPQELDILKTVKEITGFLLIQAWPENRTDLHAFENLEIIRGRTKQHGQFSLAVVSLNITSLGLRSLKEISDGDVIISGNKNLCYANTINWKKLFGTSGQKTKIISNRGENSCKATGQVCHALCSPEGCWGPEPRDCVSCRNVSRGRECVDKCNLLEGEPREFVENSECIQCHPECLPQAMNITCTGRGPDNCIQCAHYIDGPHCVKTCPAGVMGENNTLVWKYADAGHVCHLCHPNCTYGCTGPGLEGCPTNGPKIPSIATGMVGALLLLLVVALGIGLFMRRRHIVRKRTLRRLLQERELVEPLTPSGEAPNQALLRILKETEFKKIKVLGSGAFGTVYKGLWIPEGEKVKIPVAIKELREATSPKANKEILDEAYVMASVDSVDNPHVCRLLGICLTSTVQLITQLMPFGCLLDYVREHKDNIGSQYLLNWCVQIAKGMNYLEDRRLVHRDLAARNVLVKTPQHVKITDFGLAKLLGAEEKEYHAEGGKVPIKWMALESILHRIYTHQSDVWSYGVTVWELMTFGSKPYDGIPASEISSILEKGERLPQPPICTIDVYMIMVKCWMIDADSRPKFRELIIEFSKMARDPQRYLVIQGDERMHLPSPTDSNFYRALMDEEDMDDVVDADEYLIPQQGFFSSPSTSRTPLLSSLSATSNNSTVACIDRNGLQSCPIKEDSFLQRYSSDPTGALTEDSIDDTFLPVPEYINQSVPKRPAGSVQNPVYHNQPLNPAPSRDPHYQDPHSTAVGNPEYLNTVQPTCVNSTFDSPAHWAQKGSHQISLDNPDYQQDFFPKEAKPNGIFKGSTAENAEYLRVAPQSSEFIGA
Test [2] deals with BaF3 (EGFR-D770insNPG) (Homo sapiens, UniProt P00533, INS772GNP, cells depend on it). The test is described as follows: Test 6: BaF3 (EGFR-D770insNPG) cell proliferation test. To be noted: 72 hours, Cell Titer-Glo, read-out: Test 6 - IC50. The method, then: Test 6: BaF3 (EGFR-D770insNPG) Cell Proliferation Test
Chain of BaF3 (EGFR-D770insNPG) (P00533 with tags, fused parts or gaps INS772GNP): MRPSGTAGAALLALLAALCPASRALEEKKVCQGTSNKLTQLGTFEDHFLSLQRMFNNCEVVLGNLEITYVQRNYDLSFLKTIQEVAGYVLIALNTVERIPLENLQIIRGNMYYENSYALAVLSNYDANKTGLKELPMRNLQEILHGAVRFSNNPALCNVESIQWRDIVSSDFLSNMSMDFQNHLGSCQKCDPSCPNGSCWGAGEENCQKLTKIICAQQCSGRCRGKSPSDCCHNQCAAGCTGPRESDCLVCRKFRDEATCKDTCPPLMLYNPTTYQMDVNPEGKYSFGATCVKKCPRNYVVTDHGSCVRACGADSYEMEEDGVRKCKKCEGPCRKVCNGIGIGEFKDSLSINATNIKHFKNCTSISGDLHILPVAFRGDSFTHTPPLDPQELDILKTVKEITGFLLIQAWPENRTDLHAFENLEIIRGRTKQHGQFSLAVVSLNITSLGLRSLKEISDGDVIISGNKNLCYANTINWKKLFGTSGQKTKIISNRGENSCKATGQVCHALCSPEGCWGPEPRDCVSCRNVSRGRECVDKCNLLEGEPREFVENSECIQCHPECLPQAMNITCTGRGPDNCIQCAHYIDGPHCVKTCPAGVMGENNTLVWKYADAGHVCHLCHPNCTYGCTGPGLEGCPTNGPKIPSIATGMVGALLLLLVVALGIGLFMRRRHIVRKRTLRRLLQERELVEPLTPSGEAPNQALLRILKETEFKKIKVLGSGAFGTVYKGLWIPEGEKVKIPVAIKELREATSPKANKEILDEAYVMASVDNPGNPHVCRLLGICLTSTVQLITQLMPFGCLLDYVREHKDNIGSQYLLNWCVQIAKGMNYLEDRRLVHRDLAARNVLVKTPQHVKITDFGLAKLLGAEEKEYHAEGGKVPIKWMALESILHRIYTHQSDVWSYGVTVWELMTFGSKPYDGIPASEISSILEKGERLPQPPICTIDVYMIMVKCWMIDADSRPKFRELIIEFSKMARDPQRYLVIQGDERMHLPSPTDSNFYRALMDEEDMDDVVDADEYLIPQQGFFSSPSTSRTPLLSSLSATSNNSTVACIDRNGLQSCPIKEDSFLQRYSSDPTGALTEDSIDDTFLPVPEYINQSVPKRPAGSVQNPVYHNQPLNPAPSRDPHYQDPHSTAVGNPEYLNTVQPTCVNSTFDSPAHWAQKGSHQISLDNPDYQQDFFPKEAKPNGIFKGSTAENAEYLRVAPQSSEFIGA
BaF3 (EGFR-D770insNPG) was cultured in RPMI1640 medium containing 10% fetal bovine serum and 2 mM glutamine. The cells were grown at 37° C. in a humidified incubator with 5% CO2.
The number of viable cells in the culture was measured according to the protocol described in Promega's Cell Titer-Glo Luminescent cell Viability Assay (Promega catalog number #G7570). 90 μl of cells (3,000 cells/well) were cultured in growth medium in a Corning black transparent bottom 96-well plate, and cultured in a 5% CO2 humidified incubator at 37° C. overnight. The compound serially diluted in 100% DMSO was added to the cells using a pipette, and the cells were incubated for another 72 hours. 100 μl of the mixed Cell Titer-Glo reagent was added to the cells in the 96-well culture plate to lyse the cells and mix gently. Subsequently, the […] was detected on the Envision microplate detector to obtain the data of each compound. Finally, the data was input into a suitable software package (such as Prism) for curve fitting analysis.

Test [3] concerns the target BaF3 (HER2-A775insYVMA) (Homo sapiens, UniProt P04626, DUP772-775, cells depend on it). The experiment in a line: Test 9: BaF3 (HER2-A775insYVMA) cell proliferation test. The settings on record: 72 hours, Cell Titer-Glo, read-out: Test 9 - IC50.
Test [4] has as its target BaF3 (HER2-G776insVC) (Homo sapiens, UniProt P04626, cells depend on it, form not given). The test is described as follows: Test 11: BaF3 (HER2-G776insVC) cell proliferation test. The settings on record: 72 hours, Cell Titer-Glo, read-out: Test 11 - IC50.

Chain of BaF3 (HER2-G776insVC) (P04626 with tags, fused parts or gaps DELINS776-776VC): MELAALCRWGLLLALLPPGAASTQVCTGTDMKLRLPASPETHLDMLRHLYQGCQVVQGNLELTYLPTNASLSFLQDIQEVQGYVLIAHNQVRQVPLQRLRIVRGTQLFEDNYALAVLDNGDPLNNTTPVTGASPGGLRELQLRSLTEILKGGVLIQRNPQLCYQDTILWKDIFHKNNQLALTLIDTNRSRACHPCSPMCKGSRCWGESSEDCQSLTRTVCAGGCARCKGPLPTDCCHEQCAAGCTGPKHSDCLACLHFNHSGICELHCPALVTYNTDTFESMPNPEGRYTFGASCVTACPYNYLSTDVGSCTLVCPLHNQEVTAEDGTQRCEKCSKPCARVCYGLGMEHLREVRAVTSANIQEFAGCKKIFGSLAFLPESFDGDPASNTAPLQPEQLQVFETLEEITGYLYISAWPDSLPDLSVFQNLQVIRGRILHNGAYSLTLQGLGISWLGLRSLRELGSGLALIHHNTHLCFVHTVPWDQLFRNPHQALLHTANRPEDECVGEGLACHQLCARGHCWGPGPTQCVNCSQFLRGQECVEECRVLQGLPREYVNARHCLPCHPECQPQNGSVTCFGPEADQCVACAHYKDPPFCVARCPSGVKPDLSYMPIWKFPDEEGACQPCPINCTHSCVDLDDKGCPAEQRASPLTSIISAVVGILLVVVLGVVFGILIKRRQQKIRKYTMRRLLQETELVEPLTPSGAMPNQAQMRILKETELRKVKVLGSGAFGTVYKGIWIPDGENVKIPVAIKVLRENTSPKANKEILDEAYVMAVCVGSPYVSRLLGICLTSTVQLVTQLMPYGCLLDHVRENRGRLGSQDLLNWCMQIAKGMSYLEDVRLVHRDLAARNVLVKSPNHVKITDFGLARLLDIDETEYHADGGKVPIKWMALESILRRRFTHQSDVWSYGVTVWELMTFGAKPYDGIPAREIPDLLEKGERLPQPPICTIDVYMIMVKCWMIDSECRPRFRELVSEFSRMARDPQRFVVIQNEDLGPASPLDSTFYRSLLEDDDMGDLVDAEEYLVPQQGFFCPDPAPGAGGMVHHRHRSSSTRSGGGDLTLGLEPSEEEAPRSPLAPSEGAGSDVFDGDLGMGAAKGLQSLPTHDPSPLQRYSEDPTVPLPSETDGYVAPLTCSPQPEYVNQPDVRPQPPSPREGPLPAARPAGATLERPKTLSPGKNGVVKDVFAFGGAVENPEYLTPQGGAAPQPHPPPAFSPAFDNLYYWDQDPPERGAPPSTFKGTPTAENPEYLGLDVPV
Chain of BaF3 (HER2-A775insYVMA) (P04626 with tags, fused parts or gaps DUP772-775): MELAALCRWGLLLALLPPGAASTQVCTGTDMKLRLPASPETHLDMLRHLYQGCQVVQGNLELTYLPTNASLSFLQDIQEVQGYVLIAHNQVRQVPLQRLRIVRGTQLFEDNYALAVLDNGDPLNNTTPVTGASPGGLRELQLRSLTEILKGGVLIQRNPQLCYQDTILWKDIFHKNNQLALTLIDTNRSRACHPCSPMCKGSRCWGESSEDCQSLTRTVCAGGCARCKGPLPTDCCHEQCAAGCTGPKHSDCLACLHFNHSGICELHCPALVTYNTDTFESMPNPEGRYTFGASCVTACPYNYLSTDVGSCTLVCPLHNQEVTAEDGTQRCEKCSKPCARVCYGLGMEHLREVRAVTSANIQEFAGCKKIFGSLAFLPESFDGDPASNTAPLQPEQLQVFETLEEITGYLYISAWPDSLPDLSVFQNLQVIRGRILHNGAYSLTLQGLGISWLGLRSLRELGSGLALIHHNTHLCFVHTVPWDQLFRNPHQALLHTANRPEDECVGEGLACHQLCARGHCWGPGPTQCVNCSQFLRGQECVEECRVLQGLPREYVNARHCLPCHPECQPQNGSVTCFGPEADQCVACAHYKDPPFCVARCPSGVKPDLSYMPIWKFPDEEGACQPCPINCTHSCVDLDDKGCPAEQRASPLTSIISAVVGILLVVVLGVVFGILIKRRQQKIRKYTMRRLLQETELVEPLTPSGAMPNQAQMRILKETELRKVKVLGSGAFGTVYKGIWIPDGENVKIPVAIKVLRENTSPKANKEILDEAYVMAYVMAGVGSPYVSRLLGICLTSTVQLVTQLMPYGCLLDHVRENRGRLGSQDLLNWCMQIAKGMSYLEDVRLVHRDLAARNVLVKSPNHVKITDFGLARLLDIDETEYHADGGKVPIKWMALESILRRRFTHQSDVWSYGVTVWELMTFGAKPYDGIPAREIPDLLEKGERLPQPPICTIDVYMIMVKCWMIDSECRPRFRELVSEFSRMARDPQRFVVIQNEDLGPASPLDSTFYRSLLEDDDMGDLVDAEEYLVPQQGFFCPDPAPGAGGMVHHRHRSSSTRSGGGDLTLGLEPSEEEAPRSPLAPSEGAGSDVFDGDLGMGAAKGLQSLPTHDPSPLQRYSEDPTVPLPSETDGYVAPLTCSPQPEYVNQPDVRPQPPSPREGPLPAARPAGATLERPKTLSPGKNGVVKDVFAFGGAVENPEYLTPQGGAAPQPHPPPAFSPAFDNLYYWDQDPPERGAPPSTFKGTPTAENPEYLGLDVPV

As for `C=CC(=O)Nc1cc(Nc2ncnc(-c3cn(C)c4ccc(F)cc34)n2)c(OC)cc1N(C)CCN(C)C` [Example 11], the GI50 is 22.3 nM in test [1], 10.2 nM in test [2], 14.2 nM in test [3] and 1.07 nM in test [4].
For `C=CC(=O)Nc1cc(Nc2ncnc(-c3cn(C)c4ccc(F)cc34)n2)c(OC(F)F)cc1N(C)CCN(C)C` [Example 14, N-(4-(difluoromethoxy)-2-((2-(dimethylamino)ethyl)(methyl)amino)-5-((4-(5-fluoro-1-methyl-1H-indol-3-yl)-1,3,5-triazin-2-yl)amino)phenyl)acrylamide], the GI50 turned out to be 16.4 nM in test [1], 10 nM in test [2], 12.4 nM in test [3] and 1.95 nM in test [4].
In the case of `C=CC(=O)Nc1cc(Nc2ncnc(-c3cn(C)c4ccc(F)cc34)n2)c(OCC(F)(F)F)cc1N(C)CCN(C)C` [Example 15, N-(2-((2-(dimethylamino)ethyl)(methyl)amino)-5-((4-(5-fluoro-1-methyl-1H-indol-3-yl)-1,3,5-triazin-2-yl)amino)-4-(2,2,2-trifluoroethoxy)phenyl)acrylamide], the GI50 is 24.4 nM in test [1], 8.87 nM in test [2], 10.8 nM in test [3] and 1.83 nM in test [4].
